For CC(C)N(C)CC1(C(F)(F)F)c2cc(Cl)ccc2Nc2ncccc21 (stereo not drawn) [No. 93], the melting point was 157 to 158 °C.
CCN(CC)CC1(C(F)(F)F)c2cc(Cl)ccc2Nc2ncccc21 (stereo not drawn) [No. 94, 7-Chloro-5-(N,N-diethylaminomethyl)-5,10-dihydro-5-(trifluoromethyl)benzo[b][1,8]napthyridine] gave a melting point of 110 to 111 °C.
Molecule Fc1ccc2c(c1)C(OCC1CC1)(C(F)F)c1cccnc1N2 (stereo not drawn) [No. 180, 7-Fluoro-5-cyclopropylmethoxy-5-difluoromethyl-5,10-dihydro-benzo[b][1,8]naphthyridine] has a melting point of 137 to 138 °C.
Molecule FC(F)C1(OCCC2CC2)c2cc(Cl)ccc2Nc2ncccc21 (stereo not drawn) [No. 181, 7-Chloro-5-(2-cyclopropyl-ethoxy)-5-difluoromethyl-5,10-dihydro-benzo[b][1,8]naphthyridine] has a melting point of 148 to 149 °C.
In the case of FC(F)C1(Cc2ccccn2)c2cc(Cl)ccc2Nc2ncccc21 (stereo not drawn) [No. 182, 7-Chloro-5-pyridin-2-ylmethyl-5-difluoromethyl-5,10-dihydro-benzo[b][1,8]naphthyridine], the melting point is reported as 204 to 205 °C.
Molecule [O-][n+]1cccc2c1Nc1ccc(Cl)cc1C2(OCC1CC1)C(F)F (stereo not drawn) [No. 184, 7-Chloro-5-cyclopropylmethoxy-5-difluoromethyl-5,10-dihydro-benzo[b][1,8]naphthyridine 1-oxide] has a melting point of 185 to 186 °C.
Work on [O-][n+]1cccc2c1Nc1ccc(F)cc1C2(OCC1CC1)C(F)F (stereo not drawn) [No. 185, 7-Fluoro-5-cyclopropylmethoxy-5-difluoromethyl-5,10-dihydro-benzo[b][1,8]naphthyridine 1-oxide] yielded a melting point of 166 to 167 °C.
Work on [O-][n+]1cccc2c1Nc1ccc(Cl)cc1C2(OCCC1CC1)C(F)F (stereo not drawn) [No. 186, 7—Chloro-5-(2-cyclopropyl-ethoxy)-5-difluoromethyl-5,10-dihydro-benzo[b][1,8]naphthyridine 1-oxide] yielded a melting point of 175 to 176 °C.
In the case of [O-][n+]1cccc2c1Nc1ccc(Cl)cc1C2(Cc1ccccn1)C(F)F (stereo not drawn) [No. 187, 7—Chloro-5-pyridin-2-ylmethyl-5-difluoromethyl-5,10-dihydro-benzo[b][1,8]naphthyridine 1-oxide], the melting point is reported as 210 to 211 °C.
For [O-][n+]1cc(Cl)cc2c1Nc1ccc(Cl)cc1C2(OCC1CC1)C(F)F (stereo not drawn) [No. 188, 3,7-Dichloro-5-cyclopropylmethoxy-5-difluoromethyl-5,10-dihydro-benzo[b][1,8]naphthyridine 1-oxide], the melting point was 163 to 164 °C.
[O-][n+]1cccc2c1Nc1ncc(Cl)cc1C2(OCC1CC1)C(F)(F)F (stereo not drawn) [No. 201, 3-Chloro-10-cyclopropylmethoxy-10-trifluoromethyl-9,10-dihydro-1,8,9-triaza-anthracene 8-oxide] showed a melting point of 68 to 69 °C.
In the case of CC(C)COC1(C(F)(F)F)c2cccnc2Nc2ncc(Cl)cc21 (stereo not drawn) [No. 203, 3-Chloro-10-isobutoxy-10-trifluoromethyl-9,10-dihydro-1,8,9-triaza-anthracene], the melting point is reported as 166 to 167 °C.
